In brackets after ≈: the same amount, converted by molar mass.
How the values were obtained:
Staphylococcus aureus = assay: Antibacterial activity against Staphylococcus aureus; type: functional
Escherichia coli = assay: Antibacterial activity against Escherichia coli; type: functional
[1] = Chemical stability of the compound in aqueous buffer assessed as half life at pH 10 by thin layer chromatography; type: physicochemical; conditions: for half-life: aqueous buffer
[2] = Chemical stability of the compound in aqueous buffer assessed as half life at pH 5 by thin layer chromatography; type: physicochemical; conditions: for half-life: aqueous buffer; for Stability: buffer
[3] = Chemical stability of the compound in aqueous buffer assessed as half life at pH 8 by thin layer chromatography; type: physicochemical; conditions: for half-life: aqueous buffer
Bacillus subtilis = assay: Antibacterial activity against Bacillus subtilis; type: functional
[4] = Chemical stability of the compound in aqueous buffer assessed as half life at pH 7 by thin layer chromatography; type: physicochemical

Structure (SMILES) | MIC (Staphylococcus aureus) [mg/L] | MIC (Escherichia coli) [mg/L] | half-life [1] [h] | half-life [2] [h] | half-life [3] [h] | MIC (Bacillus subtilis) [mg/L] | half-life [4] [h] | Stability [2] | Stability ([3]; buffer) | Stability ([1]; buffer)
N=C(N)NCCCCCCC(=O)NCC(=O)NCCCCNCCCN | 10 (≈ 26.9 µM) | > 250 | 3 | 90 | 260 | 10 (≈ 26.9 µM) | 100 |  |  | 
COC(NC(=O)CCCCCCNC(=N)N)C(=O)NCCCCNCCCN (racemic) | 50 (≈ 125 µM) | > 250 | 48 | 140 | 720 | 50 (≈ 125 µM) | 190 |  |  | 
N=C(N)NCCCCCCC(=O)NC(C(=O)NCCCCNCCCN)c1ccc(Br)cc1 (racemic) | 50 (≈ 95 µM) | > 250 | 420 |  |  | 50 (≈ 95 µM) | 440 | Unstable | Unstable | 
N=C(N)NCCCCCCC(=O)NC(CCc1ccccc1)C(=O)NCCCCNCCCN (racemic) | 50 (≈ 105 µM) | > 250 |  |  | 563 | 50 (≈ 105 µM) | 203 | Unstable |  | Unstable
